Legend:
Type in all cases: biochemical
[1] = biological target: T1, MKK7 (Homo sapiens, UniProt O14733); assay: 33PanQinase enzyme assay, MKK7; design: purchased ProQinase GmbH, Freiburg, Germany (33PanQinase Assay Service); conditions: ratio IC50(MKK7)/IC50(MKK4)
T1 sequence (O14733 1-419): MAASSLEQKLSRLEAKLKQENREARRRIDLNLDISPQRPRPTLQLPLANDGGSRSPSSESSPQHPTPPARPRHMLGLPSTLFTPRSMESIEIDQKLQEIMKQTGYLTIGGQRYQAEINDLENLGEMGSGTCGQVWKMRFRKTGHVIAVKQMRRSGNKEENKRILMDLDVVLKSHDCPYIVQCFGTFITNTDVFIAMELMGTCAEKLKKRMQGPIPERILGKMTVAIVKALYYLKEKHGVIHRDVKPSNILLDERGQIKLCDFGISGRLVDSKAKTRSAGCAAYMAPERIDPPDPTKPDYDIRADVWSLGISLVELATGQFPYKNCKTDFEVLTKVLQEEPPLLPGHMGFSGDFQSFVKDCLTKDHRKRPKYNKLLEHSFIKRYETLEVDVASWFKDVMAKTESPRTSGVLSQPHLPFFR
How it was run: (§1)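 Off-target selectivity is the ratio IC50(off-target)/IC50(MKK4), with IC50 values from least-squares fitting and single-point data as % residual activity. Reactions of enzyme/substrate mix, ATP and compound ran 60 min at 30° C before H3PO4 stop; ^33P incorporation read on a scintillation counter.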

[2] = biological target: T2, MKK4 (Homo sapiens, UniProt P45985); assay: 33PanQinase enzyme assay, MKK4; conditions: assay 'IC50'; read-out: Potency MKK4 (IC50)
T2 construct: purchased ProQinase GmbH, Freiburg, Germany (33PanQinase Assay Service)
T2 sequence (P45985 1-399): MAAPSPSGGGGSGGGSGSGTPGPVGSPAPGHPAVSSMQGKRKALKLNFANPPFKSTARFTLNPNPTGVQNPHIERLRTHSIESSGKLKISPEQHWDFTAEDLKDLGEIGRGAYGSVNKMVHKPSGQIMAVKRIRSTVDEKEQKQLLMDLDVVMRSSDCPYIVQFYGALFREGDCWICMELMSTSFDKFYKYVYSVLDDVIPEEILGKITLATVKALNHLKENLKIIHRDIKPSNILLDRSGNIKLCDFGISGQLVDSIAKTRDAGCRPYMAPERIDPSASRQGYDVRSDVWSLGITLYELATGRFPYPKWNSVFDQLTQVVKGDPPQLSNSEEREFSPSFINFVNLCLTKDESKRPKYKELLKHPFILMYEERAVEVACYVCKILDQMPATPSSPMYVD
How it was run: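 Inhibition measured as 33Pi transfer to substrate after a 60-min, 30 °C reaction, acid-stopped and scintillation-counted.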

[3] = biological target: JNK1 (Homo sapiens, UniProt P45983); assay: 33PanQinase enzyme assay, JNK1; design: purchased ProQinase GmbH, Freiburg, Germany (33PanQinase Assay Service); conditions: ratio IC50(JNK1)/IC50(MKK4)
How it was run: as §1

[4] = biological target: T3, BRaf (Homo sapiens, UniProt P15056); assay: 33PanQinase enzyme assay, BRaf; conditions: ratio IC50(BRaf)/IC50(MKK4)
T3 construct: purchased ProQinase GmbH, Freiburg, Germany (33PanQinase Assay Service)
How it was run: as §1

JNK1, sequence (P45983 whole entry): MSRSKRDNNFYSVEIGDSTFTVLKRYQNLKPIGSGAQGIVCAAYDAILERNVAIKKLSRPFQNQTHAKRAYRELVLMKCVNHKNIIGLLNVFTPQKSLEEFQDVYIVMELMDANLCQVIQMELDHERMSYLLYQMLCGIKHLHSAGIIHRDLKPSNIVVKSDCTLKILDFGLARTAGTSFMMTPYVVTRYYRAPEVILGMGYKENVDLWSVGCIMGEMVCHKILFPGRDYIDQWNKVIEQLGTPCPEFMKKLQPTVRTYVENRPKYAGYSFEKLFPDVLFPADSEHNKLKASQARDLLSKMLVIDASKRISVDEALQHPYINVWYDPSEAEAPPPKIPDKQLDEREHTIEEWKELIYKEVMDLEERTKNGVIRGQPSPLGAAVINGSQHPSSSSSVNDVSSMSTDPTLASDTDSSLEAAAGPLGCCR
T3 sequence (P15056 whole entry, species assumed): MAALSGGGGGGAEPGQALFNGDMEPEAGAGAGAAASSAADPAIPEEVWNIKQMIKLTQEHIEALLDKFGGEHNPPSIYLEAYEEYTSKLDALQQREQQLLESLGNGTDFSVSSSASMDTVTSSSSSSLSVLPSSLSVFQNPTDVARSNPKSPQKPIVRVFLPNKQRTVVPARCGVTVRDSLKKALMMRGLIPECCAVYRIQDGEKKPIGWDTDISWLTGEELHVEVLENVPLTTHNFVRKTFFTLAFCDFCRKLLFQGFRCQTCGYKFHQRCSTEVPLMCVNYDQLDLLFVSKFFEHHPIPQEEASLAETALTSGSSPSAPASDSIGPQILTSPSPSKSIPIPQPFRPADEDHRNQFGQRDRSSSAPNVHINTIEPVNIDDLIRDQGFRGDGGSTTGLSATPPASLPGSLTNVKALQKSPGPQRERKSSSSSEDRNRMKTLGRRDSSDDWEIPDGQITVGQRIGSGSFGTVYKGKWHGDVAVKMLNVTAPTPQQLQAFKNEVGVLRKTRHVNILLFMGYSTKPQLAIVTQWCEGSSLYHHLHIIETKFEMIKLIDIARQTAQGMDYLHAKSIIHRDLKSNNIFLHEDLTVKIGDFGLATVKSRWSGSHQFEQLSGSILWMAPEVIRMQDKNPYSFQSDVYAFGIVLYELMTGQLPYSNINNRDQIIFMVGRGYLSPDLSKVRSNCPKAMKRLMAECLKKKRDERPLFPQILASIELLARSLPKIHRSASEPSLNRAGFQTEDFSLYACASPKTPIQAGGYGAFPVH

SMILES	Selectivity IVIKK7, IC50(off-target)/IC50(MKK4) [1]	IC50 [2] [nM]	Selectivity JNK1, IC50(off-target)/IC50(MKK4) [3]	Selectivity Braf, IC50(off-target)/IC50(MKK4) [4]
CCCS(=O)(=O)Nc1c(F)ccc(C(=O)c2c[nH]c3ncc(-c4ccc(C5CC5)nc4C)cc23)c1F [Example 170, N-(3-(5-(6-cyclopropyl-2-methylpyridin-3-yl)-1H-pyrrolo[2,3-b]pyridine-3-carbonyl)-2,6-difluorophenyl)propane-1-sulfonamide]	+++ (IC50(off-target)/IC50(MKK4) > 100)	< 100	+++ (IC50(off-target)/IC50(MKK4) > 100)	+++ (IC50(off-target)/IC50(MKK4) > 100)
CCCS(=O)(=O)Nc1c(F)ccc(C(=O)c2c[nH]c3ncc(-c4cnc(C)cc4C)cc23)c1F [Example 171, N-(3-(5-(4,6-dimethylpyridin-3-yl)-1H-pyrrolo[2,3-b]pyridine-3-carbonyl)-2,6-difluorophenyl)propane-1-sulfonamide]	+++ (IC50(off-target)/IC50(MKK4) > 100)	< 100	+++ (IC50(off-target)/IC50(MKK4) > 100)	+++ (IC50(off-target)/IC50(MKK4) > 100)
Cc1cnccc1-c1cnc2[nH]cc(C(=O)c3ccc(F)c(NS(=O)(=O)CCC(F)(F)F)c3F)c2c1 [Example 172, N-(2,6-difluoro-3-(5-(3-methylpyridin-4-yl)-1H-pyrrolo[2,3-b]pyridine-3-carbonyl)phenyl)-3,3,3-trifluoropropane-1-sulfonamide]	+++ (IC50(off-target)/IC50(MKK4) > 100)	< 100	+++ (IC50(off-target)/IC50(MKK4) > 100)	+++ (IC50(off-target)/IC50(MKK4) > 100)
CCCS(=O)(=O)Nc1c(F)ccc(C(=O)c2c[nH]c3ncc(-c4ccncc4Cl)cc23)c1F [Example 173, N-(3-(5-(3-chloropyridin-4-yl)-1H-pyrrolo[2,3-b]pyridine-3-carbonyl)-2,6-difluorophenyl)propane-1-sulfonamide]	+++ (IC50(off-target)/IC50(MKK4) > 100)	< 100	++ (100 ≥ IC50(off-target)/IC50(MKK4) > 10)	+++ (IC50(off-target)/IC50(MKK4) > 100)
CCCS(=O)(=O)Nc1c(F)ccc(C(=O)c2c[nH]c3ncc(-c4cnc(N5CCNCC5)nc4)cc23)c1F [Example 185, N-(2,6-difluoro-3-(5-(2-(piperazin-1-yl)pyrimidin-5-yl)-1H-pyrrolo[2,3-b]pyridine-3-carbonyl)phenyl)propane-1-sulfonamide]	+++ (IC50(off-target)/IC50(MKK4) > 100)	100 to 1000	++ (100 ≥ IC50(off-target)/IC50(MKK4) > 10)	+ (10 ≥ IC50(off-target)/IC50(MKK4) > 3)
CCCS(=O)(=O)Nc1c(F)ccc(C(=O)c2c[nH]c3ncc(-c4cnc(C)nc4Cl)cc23)c1F [Example 186, N-(3-(5-(4-chloro-2-methylpyrimidin-5-yl)-1H-pyrrolo[2,3-b]pyridine-3-carbonyl)-2,6-difluorophenyl)propane-1-sulfonamide]	+++ (IC50(off-target)/IC50(MKK4) > 100)	< 100	+++ (IC50(off-target)/IC50(MKK4) > 100)	+++ (IC50(off-target)/IC50(MKK4) > 100)
CCCS(=O)(=O)Nc1c(F)ccc(C(=O)c2c[nH]c3ncc(-c4cnc(NCCOC)nc4)cc23)c1F [Example 187, N-(2,6-difluoro-3-(5-(2-((2-methoxyethyl)amino)pyrimidin-5-yl)-1H-pyrrolo[2,3-b]pyridine-3-carbonyl)phenyl)propane-1-sulfonamide]	+++ (IC50(off-target)/IC50(MKK4) > 100)	100 to 1000	+++ (IC50(off-target)/IC50(MKK4) > 100)	+++ (IC50(off-target)/IC50(MKK4) > 100)
CCCS(=O)(=O)Nc1c(F)ccc(C(=O)c2c[nH]c3ncc(-c4cnc(N5CCOCC5)nc4)cc23)c1F [Example 188, N-(2,6-difluoro-3-(5-(2-morpholinopyrimidin-5-yl)-1H-pyrrolo[2,3-b]pyridine-3-carbonyl)phenyl)propane-1-sulfonamide]	+++ (IC50(off-target)/IC50(MKK4) > 100)	< 100	+++ (IC50(off-target)/IC50(MKK4) > 100)	+++ (IC50(off-target)/IC50(MKK4) > 100)
CCCS(=O)(=O)Nc1c(F)ccc(C(=O)c2c[nH]c3ncc(-c4cnc(C#N)nc4)cc23)c1F [Example 189, N-(3-(5-(2-cyanopyrimidin-5-yl)-1H-pyrrolo[2,3-b]pyridine-3-carbonyl)-2,6-difluorophenyl)propane-1-sulfonamide]	+++ (IC50(off-target)/IC50(MKK4) > 100)	100 to 1000	++ (100 ≥ IC50(off-target)/IC50(MKK4) > 10)	++ (100 ≥ IC50(off-target)/IC50(MKK4) > 10)
CCCS(=O)(=O)Nc1c(F)ccc(C(=O)c2c[nH]c3ncc(-c4cnc(C(N)=O)nc4)cc23)c1F [Example 190, 5-(3-(2,4-difluoro-3-(propylsulfonamido)benzoyl)-1H-pyrrolo[2,3-b]pyridin-5-yl)pyrimidine-2-carboxamide]	+++ (IC50(off-target)/IC50(MKK4) > 100)	< 100	+++ (IC50(off-target)/IC50(MKK4) > 100)	+++ (IC50(off-target)/IC50(MKK4) > 100)
CCCS(=O)(=O)Nc1c(F)ccc(C(=O)c2c[nH]c3ncc(-c4cnc(N5CCCC5)nc4)cc23)c1F [Example 191, N-(2,6-difluoro-3-(5-(2-(pyrrolidin-1-yl)pyrimidin-5-yl)-1H-pyrrolo[2,3-b]pyridine-3-carbonyl)phenyl)propane-1-sulfonamide]	+++ (IC50(off-target)/IC50(MKK4) > 100)	100 to 1000	+++ (IC50(off-target)/IC50(MKK4) > 100)	+++ (IC50(off-target)/IC50(MKK4) > 100)
CCCS(=O)(=O)Nc1c(F)ccc(C(=O)c2c[nH]c3ncc(-c4cnc(NCCCOC)nc4)cc23)c1F [Example 192, N-(2,6-difluoro-3-(5-(2-((3-methoxypropyl)amino)pyrimidin-5-yl)-1H-pyrrolo[2,3-b]pyridine-3-carbonyl)phenyl)propane-1-sulfonamide]	+++ (IC50(off-target)/IC50(MKK4) > 100)	100 to 1000	++ (100 ≥ IC50(off-target)/IC50(MKK4) > 10)	+++ (IC50(off-target)/IC50(MKK4) > 100)
CCCS(=O)(=O)Nc1c(F)ccc(C(=O)c2c[nH]c3ncc(-c4cnc(C(C)C)nc4)cc23)c1F [Example 193, N-(2,6-difluoro-3-(5-(2-isopropylpyrimidin-5-yl)-1H-pyrrolo[2,3-b]pyridine-3-carbonyl)phenyl)propane-1-sulfonamide]	+++ (IC50(off-target)/IC50(MKK4) > 100)	< 100	+++ (IC50(off-target)/IC50(MKK4) > 100)	++ (100 ≥ IC50(off-target)/IC50(MKK4) > 10)
CCCS(=O)(=O)Nc1c(F)ccc(C(=O)c2c[nH]c3ncc(-c4cnc(N5CCN(C)CC5)nc4)cc23)c1F [Example 194, N-(2,6-difluoro-3-(5-(2-(4-methylpiperazin-1-yl)pyrimidin-5-yl)-1H-pyrrolo[2,3-b]pyridine-3-carbonyl)phenyl)propane-1-sulfonamide]	+++ (IC50(off-target)/IC50(MKK4) > 100)	100 to 1000	++ (100 ≥ IC50(off-target)/IC50(MKK4) > 10)	++ (100 ≥ IC50(off-target)/IC50(MKK4) > 10)

Reference: US11912701B2, “Protein kinase inhibitors for promoting liver regeneration or reducing or preventing hepatocyte death” (HEPAREGENIX GMBH, priority 2018, dated 2024)
